Results reported in patent US20220125764A1, “PHARMACEUTICAL COMPOSITION COMPRISING BENZIMIDAZOLE DERIVATIVE COMPOUND” (HK INNO.N CORPORATION, priority 2019, published 2022).

Experiments:
gastric pH = experiment: 24-hour gastric pH monitoring after repeated oral dosing in healthy male volunteers (Example 1); assay type: in vivo, human; settings: for HTR > pH4 (%) Mean: time for which pH of gastric fluid exceeds and maintains 4 based on 24 hours: healthy male volunteers
Description: Tegoprazan and esomeprazole were orally administered for 7 days as shown in table 1 (an open-label, active controlled, parallel design and repeated dose).
There occurred neither serious adverse reactions nor dropouts caused thereby while this clinical trial was in progress. With regard to a gastric pH, a time for which the gastric pH exceeds 4 was evaluated during an observation period for the gastric pH.
After evaluating pharmacokinetic parameters, the time (%) for which a pH of gastric fluid exceeds and maintains 4 based on 24 hours is the same as shown in the following table 2.

[1] = system: erosive gastroesophageal reflux disease; experiment: Double-blinded, randomized, active-controlled maintenance therapy trial in subjects with treated erosive gastroesophageal reflux disease (Example 2); assay type: in vivo, human; settings: for subjects with erosion observed by upper gastrointestinal endoscopy: test group (tegoprazan 25 mg, at least 17 subjects) and control group (lansoprazole 15 mg) pooled, total 37 subjects; for symptom evaluation: symptoms of heartburn and gastric acid reflux while taking the drug: all the subjects of the group, once a day for four weeks, tegoprazan 25 mg, lansoprazole 15 mg
Description: A double-blinded, randomized and active controlled study was designed to identify an effect of 25 mg of tegoprazan on maintenance therapy for gastroesophageal reflux disease.
(2) a person who is diagnosed with erosive gastroesophageal reflux disease (LA grade A-D) through upper gastrointestinal endoscopy within 12 weeks based on random group allocation (visit 2);
(3) a person who is identified as having erosive gastroesophageal reflux disease treated through upper gastrointestinal endoscopy within seven days based on random group allocation (visit 2) (a person who is identified the cure of erosion after administration of a standard dose of therapeutic agents for erosive gastroesophageal reflux disease (PPI, P-CAB, etc.) for 4-8 weeks due to a typical symptom of gastroesophageal reflux disease and erosive gastroesophageal reflux disease);
The clinical trial was performed in a double-blinded, randomized, active-controlled and multi-center clinical trial manner, and the clinical trial may be schematized as shown in FIG. 1.
The subjects were classified using stratified block randomization based on LA grades identified by upper gastrointestinal endoscopy performed within 12 weeks before the random allocation on visit (visit 2). Each group was administered with the drug for 24 weeks.
As identified in the table above, the test group was orally dosed with 25 mg of tegoprazan tablet (Preparation Example 1)/lansoprazole 15 mg placebo (Preparation Example 4), and the control group was orally dosed with 25 mg of tegoprazan placebo (Preparation Example 2)/lansoprazole 15 mg capsule (Preparation Example 3).
The subjects randomly allocated to each group took the prescribed clinical trial drug once a day at a regular time from the first day of prescription. A diary on the trial subjects was kept from the start day of taking the clinical trial drug.
During a visit in 4 weeks (visit 3), 12 weeks (visit 4) and 24 weeks (visit 5) later, subjects paid a visit on an empty stomach without taking the clinical trial drug, then received a scheduled test, then were newly prescribed the same drug, then took it from the very day, then received a test in their visit in 24 weeks (visit 5) later, and then stopped the administration.
In four weeks (visit 3) after administering the clinical trial drug, endoscopy was not performed, but clinical laboratory tests (hematologic test, blood chemistry test, blood coagulation test, urine test, hepatitis test, etc.) and evaluation of symptoms were performed. In 12 weeks (visit 4) and 24 weeks (visit 5) later, it was checked whether erosion recurred or not through the upper gastrointestinal endoscopy, and the clinical laboratory test, evaluation of symptoms and the like were performed. Clinical trial subjects took the clinical trial drug for up to 24 weeks and then entered into a safety follow-up (f/u) period, in which the f/u was performed (by phone or visit) in two weeks after the last administration.
(1) Endoscopic remission: No recurrence of erosion (LA grade A-D) observed through upper gastrointestinal endoscopy during a maintenance period (12 weeks)
(1) Rate of subjects without main symptoms (heartburn and gastric acid reflux)
Rate of subjects without main symptoms=(Subjects without main symptoms expressed/Number of clinical trial subjects whose symptoms were evaluated during a maintenance period after administration of the clinical trial drug)×100

Row | Compound | HTR > pH4 (%) Mean: time for which pH of gastric fluid exceeds and maintains 4 based on 24 hours (gastric pH; Day 1, 25 mg once a day orally) [%] | HTR > pH4 (%) Mean: time for which pH of gastric fluid exceeds and maintains 4 based on 24 hours (gastric pH; Day 7, 25 mg once a day orally for seven days) [%] | average of time for which the gastric pH exceeds 4 (Time pH>4, %) (gastric pH; from day 1 after the administration, 25 mg, observed for 24 hours) | maintenance effect after four weeks of administration ([1]; 25 mg once a day, 4 weeks) | maintenance effect (endoscopic remission maintenance) after twelve weeks of administration ([1]; 25 mg once a day, 12 weeks) | inhibition of the recurrence of gastroesophageal reflux disease ([1]; 25 mg, conclusion from 12-week endoscopy) | subjects with erosion observed by upper gastrointestinal endoscopy ([1]; 12 weeks) | symptom evaluation: symptoms of heartburn and gastric acid reflux while taking the drug [1]
1 | Cc1nc2cc(C(=O)N(C)C)cc(O[C@H]3CCOc4cc(F)cc(F)c43)c2[nH]1 [tegoprazan, (S)-4-(5,7-difluorochroman-4-yloxy)-N,N,2-trimethyl-1H-benzo[d]imidazole-6-carboxamide] | 40.6 | 56.6 | at least 40% | demonstrated a maintenance effect | A maintenance effect was observed | effectively inhibits the recurrence of gastroesophageal reflux disease | only one subject among the total 37 subjects | had not experienced symptoms of heartburn and gastric acid reflux
2 | Cc1c(OCC(F)(F)F)ccnc1C[S+]([O-])c1nc2ccccc2[nH]1 (stereo not shown) [lansoprazole, reference compound] |  |  |  |  |  |  | only one subject among the total 37 subjects | had not experienced symptoms of heartburn and gastric acid reflux
